Laboratory results from US9718804B2, “GSK-3 inhibitors” (BRISTOL-MYERS SQUIBB COMPANY, priority 2013, dated 2017).
Read-outs that look alike come from different tables or passages of the source.

Assays:
GSK3β = GSK3β (Homo sapiens, UniProt P49841); experiment: GSK3β kinase assay (Caliper LabChip, fluoresceinated peptide substrate); format: biochemical
Summary of the method: (§1)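 Reactions run 20 hours at room temperature, stopped with EDTA. Phosphorylated and unphosphorylated fluoresceinated peptide separated electrophoretically on Caliper LabChip3000. Eleven compound concentrations tested; IC50 by non-linear regression.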

GSK3α = GSK3α (Homo sapiens, UniProt P49840); experiment: GSK3α kinase assay (Caliper LabChip, fluoresceinated peptide substrate); format: biochemical
Summary of the method: as §1

pTau = pTau assay (no method described); format: cell-based
[1] = first value of the cell, 250 pM enzyme, 20 uM ATP, 20 hours at room temperature, read-out: GSK3β/α (nM): GSK3β IC50

Sequence of GSK3β (P49841 whole entry, species assumed): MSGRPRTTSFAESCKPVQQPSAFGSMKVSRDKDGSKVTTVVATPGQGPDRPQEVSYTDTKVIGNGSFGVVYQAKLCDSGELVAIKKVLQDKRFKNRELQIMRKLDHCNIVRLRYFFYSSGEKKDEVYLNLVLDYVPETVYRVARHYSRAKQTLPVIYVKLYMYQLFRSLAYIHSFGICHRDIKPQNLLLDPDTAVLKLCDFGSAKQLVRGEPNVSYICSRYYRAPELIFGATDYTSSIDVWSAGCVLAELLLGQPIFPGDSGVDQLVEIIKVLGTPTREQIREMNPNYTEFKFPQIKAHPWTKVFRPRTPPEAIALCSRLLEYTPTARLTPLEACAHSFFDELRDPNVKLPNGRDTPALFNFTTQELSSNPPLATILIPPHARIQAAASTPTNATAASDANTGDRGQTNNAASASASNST
Sequence of GSK3α (P49840 whole entry, species assumed): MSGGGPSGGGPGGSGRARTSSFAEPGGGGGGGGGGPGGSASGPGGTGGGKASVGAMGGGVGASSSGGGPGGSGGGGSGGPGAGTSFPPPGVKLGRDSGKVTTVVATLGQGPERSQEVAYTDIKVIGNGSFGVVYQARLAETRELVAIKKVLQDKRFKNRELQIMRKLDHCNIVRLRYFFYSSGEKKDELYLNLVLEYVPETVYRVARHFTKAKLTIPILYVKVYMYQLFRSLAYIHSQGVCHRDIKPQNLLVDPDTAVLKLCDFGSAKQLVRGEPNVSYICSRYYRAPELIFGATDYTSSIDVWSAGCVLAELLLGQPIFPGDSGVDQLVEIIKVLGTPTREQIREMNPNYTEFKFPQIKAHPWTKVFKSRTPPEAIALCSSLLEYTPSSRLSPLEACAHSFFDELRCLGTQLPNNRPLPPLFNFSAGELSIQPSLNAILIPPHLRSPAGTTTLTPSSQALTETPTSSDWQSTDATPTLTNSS

Row | Compound | IC50 (GSK3β; [1]) [nM] | IC50 (GSK3α) [nM] | IC50 (pTau) [nM] | IC50 (GSK3β) [nM]
1 | O=C(Nc1cnc(Cl)cc1[S+]([O-])C1CC1)c1ccnc(Nc2ccc(C(F)(F)F)cn2)c1 (stereo not drawn) [Example 180, N-(6-Chloro-4-(cyclopropylsulfinyl)pyridin-3-yl)-2-((5-(trifluoromethyl)pyridin-2-yl)amino)isonicotinamide] | 15 | 7.6 | 790 | 
2 | Cc1ccc(Nc2cc(C(=O)Nc3cncc(-c4ccccc4F)c3)ccn2)nc1C [Example 143, 2-((5,6-Dimethylpyridin-2-yl)amino)-N-(5-(2-fluorophenyl)pyridin-3-yl)isonicotinamide] |  | 6 | 2800 | 8.7
3 | O=C(Nc1cnc(Cl)cc1SC1CC1)c1ccnc(Nc2ccc(C(F)(F)F)cn2)c1 [Example 176, N-(6-Chloro-4-(cyclopropylthio)pyridin-3-yl)-2-((5-(trifluoromethyl)pyridin-2-yl)amino)isonicotinamide] | 11 | 7 | 1100 | 
4 | C[C@H]1COCCN1c1ccncc1NC(=O)c1ccnc(Nc2ccc(C(F)(F)F)cn2)c1 [Example 20, (S)—N-(4-(3-Methylmorpholino)pyridin-3-yl)-2-((5-(trifluoromethyl)pyridin-2-yl)amino)isonicotinamide] | 0.1 | 0.09 | 0.66 | 
5 | O=C(Nc1cnc(Cl)cc1C1(O)CCOCC1)c1ccnc(Nc2ccc(C(F)(F)F)cn2)c1 [Example 74, N-(6-Chloro-4-(4-hydroxytetrahydro-2H-pyran-4-yl)pyridin-3-yl)-2-((5-(trifluoromethyl)pyridin-2-yl)amino)isonicotinamide] | 3.4 | 2.5 | 180 | 
6 | O=C(Nc1cnc(F)cc1N1CCC(F)(F)CC1)c1ccnc(Nc2ccc(C(F)(F)F)cn2)c1 [Example 71, N-(6-Fluoro-4-(4,4-difluoropiperidin-1-yl)pyridin-3-yl)-2-((5-(trifluoromethyl)pyridin-2-yl)amino)isonicotinamide] | 1.3 | 0.36 | 60 | 
7 | Cc1cc(N2CCC(F)(F)CC2)c(NC(=O)c2ccnc(Nc3ccc(C(F)(F)F)cn3)c2)cn1 [Example 72, N-(6-Methyl-4-(4,4-difluoropiperidin-1-yl)pyridin-3-yl)-2-((5-(trifluoromethyl)pyridin-2-yl)amino)isonicotinamide] | 3.5 | 0.76 | 120 | 
8 | O=C(Nc1cnccc1SCC(F)(F)F)c1ccnc(Nc2ccc(C(F)(F)F)cn2)c1 [Example 171, N-(4-((2,2,2-Trifluoroethyl)thio)pyridin-3-yl)-2-((5-(trifluoromethyl)pyridin-2-yl)amino)isonicotinamide] | 1.2 | 0.61 | 47 | 
9 | O=C(Nc1cnc(Cl)cc1S(=O)(=O)C1CC1)c1ccnc(Nc2ccc(C(F)(F)F)cn2)c1 [Example 188, N-(6-Chloro-4-(cyclopropylsulfonyl)pyridin-3-yl)-2-((5-(trifluoromethyl)pyridin-2-yl)amino)isonicotinamide] | 5 | 3.3 | 150 | 
10 | O=C(Nc1cncc(F)c1-c1ccccc1)c1ccnc(Nc2ccc(C(F)(F)F)cn2)c1 [Example 117, N-(5-Fluoro-4-phenylpyridin-3-yl)-2-((5-(trifluoromethyl)pyridin-2-yl)amino)isonicotinamide] | 3 | 1.4 | 254 | 
11 | O=C(Nc1cn[nH]c1-c1ccccc1)c1ccnc(Nc2ccc(C(F)(F)F)cn2)c1 [Example 205, N-(5-Phenyl-1H-pyrazol-4-yl)-2-((5-(trifluoromethyl)pyridin-2-yl)amino)isonicotinamide] | 28 | 20 | 10000 | 
12 | O=C(Nc1cncc(-c2ccccc2F)c1)c1ccnc(Nc2cccc(F)n2)c1 [Example 136, N-(5-(2-Fluorophenyl)pyridin-3-yl)-2-((6-fluoropyridin-2-yl)amino)isonicotinamide] | 11 | 2.7 | 1100 | 
13 | O=C(Nc1cncnc1N1CCOCC1)c1ccnc(Nc2ccc(C(F)(F)F)cn2)c1 [Example 195, N-(4-Morpholinopyrimidin-5-yl)-2-((5-(trifluoromethyl)pyridin-2-yl)amino)isonicotinamide] | 17 | 7.9 | 710 | 
14 | CC(C)C(O)c1cc(Cl)ncc1NC(=O)c1ccnc(Nc2ccc(C(F)(F)F)cn2)c1 (stereo not drawn) [Example 103, N-(6-Chloro-4-(1-hydroxy-2-methylpropyl)pyridin-3-yl)-2-((5-(trifluoromethyl)pyridin-2-yl)amino)isonicotinamide] | 6.7 | 3.9 | 540 | 
15 | CCCSc1ccncc1NC(=O)c1ccnc(Nc2ccc(C(F)(F)F)cn2)c1 [Example 170, N-(4-(Propylthio)pyridin-3-yl)-2-((5-(trifluoromethyl)pyridin-2-yl)amino)isonicotinamide] | 0.75 | 0.21 | 49 | 
16 | COc1ccc(Nc2cc(C(=O)Nc3cncc(-c4ccccc4F)c3)ccn2)nc1OC [Example 151, 2-((5,6-Dimethoxypyridin-2-yl)amino)-N-(5-(2-fluorophenyl)pyridin-3-yl)isonicotinamide] | 6 | 2.4 | 510 | 
17 | Cc1nc(Nc2cc(C(=O)Nc3cncc(-c4ccccc4F)c3)ccn2)ccc1C#N [Example 155, 2-((5-Cyano-6-methylpyridin-2-yl)amino)-N-(5-(2-fluorophenyl)pyridin-3-yl)isonicotinamide] | 3.6 | 1.2 | 570 | 
18 | N#Cc1ccc(Nc2cc(C(=O)Nc3cnccc3-c3ccc(F)cc3)ccn2)nc1 [Example 56, 2-((5-Cyanopyridin-2-yl)amino)-N-(4-(4-fluorophenyl)pyridin-3-yl)isonicotinamide] | 2.4 | 0.98 | 36 | 
19 | O=C(Nc1cnc(Cl)cc1C1(c2ccccc2)OCCO1)c1ccnc(Nc2ccc(C(F)(F)F)cn2)c1 [Example 95, N-(6-Chloro-4-(2-phenyl-1,3-dioxolan-2-yl)pyridin-3-yl)-2-((5-(trifluoromethyl)pyridin-2-yl)amino)isonicotinamide] | 10 | 5.5 | 910 | 
20 | O=C(Nc1cnccc1C1=CCOCC1)c1ccnc(Nc2ccc(C(F)(F)F)cn2)c1 [Example 32, N-(4-(3,6-Dihydro-2H-pyran-4-yl)pyridin-3-yl)-2-((5-(trifluoromethyl)pyridin-2-yl)amino)isonicotinamide] | 2.3 | 0.78 | 71 | 
21 | CC(C)(C)COc1cc(F)ncc1NC(=O)c1ccnc(Nc2ccc(Cl)cn2)c1 [Example 112, 2-((5-Chloropyridin-2-yl)amino)-N-(6-fluoro-4-(neopentyloxy)pyridin-3-yl)isonicotinamide] | 5 | 3 | 850 | 
22 | CC(O)c1ccncc1NC(=O)c1ccnc(Nc2ccc(C(F)(F)F)cn2)c1 (stereo not drawn) [Example 34, N-(4-(1-Hydroxyethyl)pyridin-3-yl)-2-((5-(trifluoromethyl)pyridin-2-yl)amino)isonicotinamide] | 3.2 | 1.4 | 37 | 
23 | C[C@@H]1COCCN1c1ccncc1NC(=O)c1ccnc(Nc2ccc(C(F)(F)F)cn2)c1 [Example 21, (R)—N-(4-(3-Methylmorpholino)pyridin-3-yl)-2-((5-(trifluoromethyl)pyridin-2-yl)amino)isonicotinamide] | 0.7 | 0.28 | 9.1 | 
24 | CC(C)(C)Sc1ccncc1NC(=O)c1ccnc(Nc2ccc(C(F)(F)F)cn2)c1 [Example 174, N-(4-(tert-Butylthio)pyridin-3-yl)-2-((5-(trifluoromethyl)pyridin-2-yl)amino)isonicotinamide] | 0.14 | 0.08 | 27 | 
25 | CCCC(O)c1cc(Cl)ncc1NC(=O)c1ccnc(Nc2ccc(C(F)(F)F)cn2)c1 (stereo not drawn) [Example 100, N-(6-Chloro-4-(1-hydroxybutyl)pyridin-3-yl)-2-((5-(trifluoromethyl)pyridin-2-yl)amino)isonicotinamide] | 11 | 8.4 | 500 | 
26 | O=C(Nc1cnc2cccnn12)c1ccnc(Nc2ccc(C(F)(F)F)cn2)c1 [Example 210, N-(Imidazo[1,2-b]pyridazin-3-yl)-2-((5-(trifluoromethyl)pyridin-2-yl)amino)isonicotinamide] | 33 | 11 | 2300 | 
27 | CC(C)(C#N)c1ccc(Nc2cc(C(=O)Nc3cnccc3-c3ccccc3)ccn2)nc1 [Example 61, 2-((5-(2-Cyanopropan-2-yl)pyridin-2-yl)amino)-N-(4-phenylpyridin-3-yl)isonicotinamide] | 1.5 | 0.54 | 150 | 
28 | C[C@H]1CO[C@](c2cc(Cl)ncc2NC(=O)c2ccnc(Nc3ccc(C(F)(F)F)cn3)c2)(C2CC2)O1 [Example 97, N-(6-Chloro-4-((2R,4S)-2-cyclopropyl-4-methyl-1,3-dioxolan-2-yl)pyridin-3-yl)-2-((5-(trifluoromethyl)pyridin-2-yl)amino)isonicotinamide] | 1.5 | 0.56 | 84 | 
29 | CC[C@@]1(c2cc(Cl)ncc2NC(=O)c2ccnc(Nc3ccc(C(F)(F)F)cn3)c2)OC[C@H](C)O1 [Example 89, N-(6-Chloro-4-((2R,4S)-2-ethyl-4-methyl-1,3-dioxolan-2-yl)pyridin-3-yl)-2-((5-(trifluoromethyl)pyridin-2-yl)amino)isonicotinamide] | 1.6 | 1.7 | 340 | 
30 | O=C(Nc1cnccc1S(=O)(=O)c1ccccc1)c1ccnc(Nc2ccc(C(F)(F)F)cn2)c1 [Example 183, N-(4-(Phenylsulfonyl)pyridin-3-yl)-2-((5-(trifluoromethyl)pyridin-2-yl)amino)isonicotinamide] | 2.2 | 0.75 | 200 | 
